The values below come from US8140141B2, “Devices and methods for fluorescent inspection and/or removal of material in a sample” (University of Utah Research Foundation, priority 2006, dated 2012).

The test system of series [1] is P-388 murine leukemia cells.
The subject of series [2] is HCT-116 human colon tumor cells.
The conditions of series [3]: conventional blue dyes for sentinel lymph node procedures, after injection into tissue; cited from earlier work.

As to doxorubicin-cobalamin conjugate, the Cellular uptake entry in series [1] and in series [2] was “can be observed” each time. Regarding `CN(C)c1ccc2nc3ccc(=[N+](C)C)cc-3sc2c1` [methylene blue], the “Passage out of lymphatic ducts into surrounding tissue” value in series [3] is on record as “tend to flow out of the lymphatic ducts into the surrounding tissue very quickly”. Regarding `CCN(CC)c1ccc(C(=C2C=CC(=[N+](CC)CC)C=C2)c2cc(S(=O)(=O)[O-])ccc2S(=O)(=O)[O-])cc1.[Na+]` [Lymphazurine], in series [3], the “Passage out of lymphatic ducts into surrounding tissue” value is recorded as “tend to flow out of the lymphatic ducts into the surrounding tissue very quickly”.
